Converted amounts (≈) assume the structure as drawn. The source made the active and inactive calls. No cut-off for these calls is given here. Numbered stars: 1 amine (or outer) side, 2 acyl side, 3 side chain; on linkers, the order of the positions; unused ones are H or OH. Bridge positions count the residues as written; N and C are the ends. Square brackets hold non-standard residues; d marks the D form. Peptide text beside a SMILES is read from it. X1 = C=CCCC[C@H](O[*:2])C(C)(C)C(=O)[*:1]; X2 = C#CCCC[C@H](O[*:2])C(C)(C)C(=O)[*:1]; Hmpa(2S,3S) = CC[C@H](C)[C@H](O)C(=O)O; NMeF = CN[C@@H](Cc1ccccc1)C(=O)O
Assays:
[1] = system: Mycobacterium tuberculosis; assay: Antimycobacterial activity against Mycobacterium tuberculosis ATCC 25177 at 100 ug/disk by disk diffusion susceptibility assay; format: functional; details: read-out: DIZ
[2] = system: Mycobacterium tuberculosis; assay: Antimycobacterial activity against Mycobacterium tuberculosis ATCC 25177 at 25 ug/disk by disk diffusion susceptibility assay; format: functional; details: read-out: DIZ
LoVo = assay: Cytotoxicity against human LoVo cells; format: functional, cell-based
[3] = target: Plasminogen (Homo sapiens) (UniProt P00747); assay: Inhibition of plasmin
[4] = system: Mycobacterium tuberculosis; assay: Antimycobacterial activity against Mycobacterium tuberculosis ATCC 35818 at 100 ug/disk by disk diffusion susceptibility assay; format: functional; details: read-out: DIZ
[5] = target: Prothrombin (Homo sapiens) (UniProt P00734); assay: Inhibition of thrombin
[6] = Stimulation of elastase activity at 50 ug/ml relative to control
[7] = system: Mycobacterium tuberculosis; assay: Antimycobacterial activity against Mycobacterium tuberculosis ATCC 35818 at 25 ug/disk by disk diffusion susceptibility assay; format: functional; details: read-out: DIZ
[8] = Inhibition of elastase
[9] = Inhibition of trypsin
Papain (Carica papaya) = target: T1, Papain (Carica papaya) (UniProt P00784); assay: Inhibition of papaya papain
T1 sequence (whole entry): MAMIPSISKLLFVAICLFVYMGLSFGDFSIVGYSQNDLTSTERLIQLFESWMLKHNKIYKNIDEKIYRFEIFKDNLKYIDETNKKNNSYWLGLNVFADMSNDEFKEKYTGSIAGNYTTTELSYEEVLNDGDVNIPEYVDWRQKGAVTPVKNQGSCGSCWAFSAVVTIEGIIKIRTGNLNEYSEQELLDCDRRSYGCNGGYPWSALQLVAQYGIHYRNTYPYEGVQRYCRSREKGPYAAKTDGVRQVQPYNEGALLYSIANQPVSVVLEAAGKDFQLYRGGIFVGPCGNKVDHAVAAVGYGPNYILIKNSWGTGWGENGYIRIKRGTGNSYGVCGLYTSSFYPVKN

[10] = Inhibition of chymotrypsin
[11] = system: Mycobacterium tuberculosis; assay: Antimycobacterial activity against Mycobacterium tuberculosis ATCC 25177 at 1 ug/disk by disk diffusion susceptibility assay; format: functional; details: read-out: DIZ
[12] = system: Mycobacterium tuberculosis; assay: Antimycobacterial activity against Mycobacterium tuberculosis ATCC 35818 at 5 ug/disk by disk diffusion susceptibility assay; format: functional; details: read-out: DIZ
[13] = system: Mycobacterium tuberculosis; assay: Antimycobacterial activity against Mycobacterium tuberculosis ATCC 25177 at 5 ug/disk by disk diffusion susceptibility assay; format: functional; details: read-out: DIZ
[14] = system: Mycobacterium tuberculosis; assay: Antimycobacterial activity against Mycobacterium tuberculosis ATCC 35818 at 1 ug/disk by disk diffusion susceptibility assay; format: functional; details: read-out: DIZ

Chain of Plasminogen (Homo sapiens) (P00747 97-580 limits assumed): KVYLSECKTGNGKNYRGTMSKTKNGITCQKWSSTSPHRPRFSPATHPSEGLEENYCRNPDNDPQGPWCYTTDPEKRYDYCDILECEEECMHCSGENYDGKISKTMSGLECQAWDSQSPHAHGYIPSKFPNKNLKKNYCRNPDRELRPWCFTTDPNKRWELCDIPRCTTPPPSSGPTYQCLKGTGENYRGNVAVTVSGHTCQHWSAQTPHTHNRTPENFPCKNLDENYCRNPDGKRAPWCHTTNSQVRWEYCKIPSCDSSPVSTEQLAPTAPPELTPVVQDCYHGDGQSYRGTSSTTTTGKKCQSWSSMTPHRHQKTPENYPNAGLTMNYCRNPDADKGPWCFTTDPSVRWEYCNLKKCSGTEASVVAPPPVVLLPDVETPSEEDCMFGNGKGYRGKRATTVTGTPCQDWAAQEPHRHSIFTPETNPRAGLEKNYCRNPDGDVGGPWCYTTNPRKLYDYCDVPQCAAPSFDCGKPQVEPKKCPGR
Chain of Plasminogen (Homo sapiens) (P00747 581-810 limits assumed): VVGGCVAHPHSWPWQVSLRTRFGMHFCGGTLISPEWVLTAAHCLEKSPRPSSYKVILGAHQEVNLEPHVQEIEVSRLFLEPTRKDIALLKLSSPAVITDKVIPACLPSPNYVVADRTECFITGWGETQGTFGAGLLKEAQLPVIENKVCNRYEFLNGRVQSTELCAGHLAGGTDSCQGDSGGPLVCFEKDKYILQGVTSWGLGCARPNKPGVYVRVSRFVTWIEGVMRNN

Structure (SMILES)	zone of inhibition at 100 µg/disc [1]	zone of inhibition at 25 µg/disc [2]	IC50 (LoVo)	Activity [3]	zone of inhibition at 100 µg/disc [4]	Activity [5]	fold change (FC) [6]	zone of inhibition at 25 µg/disc [7]	Activity [8]	Activity [9]	Activity (Papain (Carica papaya))	Activity [10]	zone of inhibition at 1 µg/disc [11]	zone of inhibition at 5 µg/disc [12]	zone of inhibition at 5 µg/disc [13]	zone of inhibition at 1 µg/disc [14]
C=CCCC[C@@H]1OC(=O)CNC(=O)[C@H]([C@@H](C)CC)NC(=O)[C@@H]2CCCN2C(=O)[C@H]([C@@H](C)CC)OC(=O)[C@H](Cc2ccccc2)N(C)C(=O)[C@H](C(C)C)NC(=O)C1(C)C [PITIPEPTOLIDE B] (V[NMeF][Hmpa(2S,3S)]PIG; linker N-C via X1)	30 mm	15 mm	1.95 µg/mL (≈ 2.41 µM)	inactive	15 mm	inactive	2.55	10 mm	inactive	inactive	inactive	inactive				
C#CCCC[C@@H]1OC(=O)CNC(=O)[C@H]([C@@H](C)CC)NC(=O)[C@@H]2CCCN2C(=O)[C@H]([C@@H](C)CC)OC(=O)[C@H](Cc2ccccc2)N(C)C(=O)[C@H](C(C)C)NC(=O)C1(C)C [PITIPEPTOLIDE A] (V[NMeF][Hmpa(2S,3S)]PIG; linker N-C via X2)	25 mm	10 mm	2.25 µg/mL (≈ 2.78 µM)	inactive	15 mm	inactive	2.76	9 mm	inactive	inactive	inactive	inactive				
CN[C@@H]1[C@H](O[C@H]2[C@H](O[C@H]3[C@H](O)[C@@H](O)[C@H](N=C(N)N)[C@@H](O)[C@@H]3N=C(N)N)O[C@@H](C)[C@]2(O)C=O)O[C@@H](CO)[C@H](O)[C@H]1O [STREPTOMYCIN]		50 mm						55 mm					0 mm	33 mm	15 mm	10 mm

From ChEMBL document CHEMBL1150566, “Pitipeptolides A and B, new cyclodepsipeptides from the marine cyanobacterium Lyngbya majuscula” (J Nat Prod, 2001)
